Paper PMC3090393, “New Noncovalent Inhibitors of Penicillin-Binding Proteins from Penicillin-Resistant Bacteria” (PLoS ONE, 2011)
≈ marks a conversion by molar mass, not a printed value.

Key:
PBP2a = biological target: T1, PBP2a (Staphylococcus aureus, UniProt P07944); assay: PBP2a enzymatic inhibition assay (fluorescein-labeled ampicillin, residual penicillin binding activity); format: biochemical, Staphylococcus aureus ATCC 43300; details: for remaining activity at 1000 µM: 4 h, residual activity of the enzyme at 1 mM inhibitor, 0.01% Triton X-100, mean of three experiments, read-out: PBP2a RA [%]; for IC50: in the presence of 0.01% Triton X-100
T1 construct: made in house
T1 sequence (P07944 whole entry): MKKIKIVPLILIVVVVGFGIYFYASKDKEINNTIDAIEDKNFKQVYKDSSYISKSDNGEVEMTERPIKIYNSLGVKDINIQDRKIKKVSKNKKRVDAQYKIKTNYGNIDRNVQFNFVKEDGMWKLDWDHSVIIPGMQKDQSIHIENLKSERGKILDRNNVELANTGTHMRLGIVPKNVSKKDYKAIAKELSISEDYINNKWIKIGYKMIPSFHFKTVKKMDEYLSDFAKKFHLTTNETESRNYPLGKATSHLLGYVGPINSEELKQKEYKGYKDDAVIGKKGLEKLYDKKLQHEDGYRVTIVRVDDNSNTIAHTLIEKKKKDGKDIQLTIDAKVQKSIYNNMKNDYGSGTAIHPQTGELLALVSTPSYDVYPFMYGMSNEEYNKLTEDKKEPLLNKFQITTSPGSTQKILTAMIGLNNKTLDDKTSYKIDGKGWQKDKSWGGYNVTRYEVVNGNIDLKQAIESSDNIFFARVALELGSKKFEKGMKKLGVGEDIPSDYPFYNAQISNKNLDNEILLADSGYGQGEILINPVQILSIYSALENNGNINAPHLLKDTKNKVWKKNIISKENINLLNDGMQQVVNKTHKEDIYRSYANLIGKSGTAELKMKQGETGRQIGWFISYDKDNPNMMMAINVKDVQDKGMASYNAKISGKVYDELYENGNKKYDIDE
Procedure: (§1) PBP2a from Staphylococcus aureus ATCC 43300 and PBP5fm from Enterococcus faecium D63r were overproduced and purified as described previously, [18].
(§2) Each of the purified PBPs (2.5 µM) were first incubated with 1 mM potential inhibitor in 100 mM phosphate buffer, 0.01% Triton X-100[19], pH 7, for 4 h at 30°C. Then, 25 µM fluorescein-labeled ampicillin[20] was added to detect the residual penicillin binding activity (RA). The samples were further incubated for 30 min at 37°C in a total volume of 20 µL. Denaturation buffer was added (0.1 M Tris/HCl, pH 6.8, containing 25% glycerol, 2% SDS, 20% β-mercaptoethanol and 0.02% bromophenol blue) and the samples were heated to 100°C for 1 min. The samples were then loaded onto a 10% SDS-acrilamide gel (10×7 cm) and electrophoresis was performed for 45 min at 180 V (12 mA). Detection and quantification of the RAs were with Molecular Image FX equipment and Quantity One software (BioRad, Hercules, CA, USA). Three independent experiments were carried out for each inhibitor.

PBP2x 5204 = PBP2x 5204 (Streptococcus pneumoniae, UniProt P59676); assay: PBP2x 5204 enzymatic inhibition assay (S2d hydrolysis, DTNB); format: biochemical, Streptococcus pneumoniae strain 5204; details: residual activity of the enzyme at 1 mM inhibitor; 240 min
Sequence of PBP2x 5204 (P59676 49-750): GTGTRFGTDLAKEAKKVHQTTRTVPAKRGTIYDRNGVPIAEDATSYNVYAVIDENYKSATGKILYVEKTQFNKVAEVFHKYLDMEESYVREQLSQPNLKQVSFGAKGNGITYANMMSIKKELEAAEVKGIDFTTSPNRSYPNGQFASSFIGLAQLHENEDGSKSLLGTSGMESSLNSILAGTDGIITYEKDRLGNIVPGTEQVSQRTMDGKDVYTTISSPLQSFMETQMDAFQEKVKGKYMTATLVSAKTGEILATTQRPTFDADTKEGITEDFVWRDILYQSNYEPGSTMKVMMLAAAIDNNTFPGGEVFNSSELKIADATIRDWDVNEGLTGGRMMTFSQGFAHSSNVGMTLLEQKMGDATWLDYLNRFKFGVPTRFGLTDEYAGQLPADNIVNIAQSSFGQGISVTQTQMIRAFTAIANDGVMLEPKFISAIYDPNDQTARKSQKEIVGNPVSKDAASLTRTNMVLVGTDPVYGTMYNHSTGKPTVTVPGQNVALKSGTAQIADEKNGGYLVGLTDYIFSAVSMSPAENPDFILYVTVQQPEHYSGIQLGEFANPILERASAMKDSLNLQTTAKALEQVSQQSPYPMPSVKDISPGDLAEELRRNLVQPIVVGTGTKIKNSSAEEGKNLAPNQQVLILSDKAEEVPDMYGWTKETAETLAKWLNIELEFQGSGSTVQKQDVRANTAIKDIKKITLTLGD
Procedure: PBP2x-5204 from Streptococcus pneumonia and N-benzoyl-D-alanyl-thioglycolate S2d[21], [22] were prepared as previously described. All assays with PBP2x 5204 were carried out in 96-well microtiter plates (Brand, Wertheim, Germany). PBP2x 5204 (0.6 µM) was incubated in the presence of the potential inhibitors in 10 mM sodium phosphate buffer (pH 7.0) containing 70 mM D-alanine and 0.01 mg/mL BSA, for 4 h at 25°C. This preincubation was used to also detect slow binding inhibitors. After the preincubation, the RA of PBP2x 5204 was determined. The initial rate of hydrolysis of 1 mM S2d in the presence of 1 mM DTNB was determined by monitoring the increase in absorbance at 412 nm (DTNB: ε[Δ ε] = […]) using a microplate absorbance reader (Power Wave X, Biotek Instruments, Winooski, U.S.A.). The rate of spontaneous hydrolysis of S2d in the presence of the potential inhibitors was also determined in the absence of PBP2x 5204. All of the assays were carried out in triplicate. The determination of the RA of PBP2x 5204 in the absence of inhibitors was carried out six times on each plate. A test compound was considered as an inhibitor if the RA was <80%. In this case, to reveal false positives, the assays were also carried out under the same conditions in the presence of 0.01% Triton X-100. As described in the literature, promiscuous inhibitors (false positives) are slow binding, noncompetitive inhibitors. To avoid detailed kinetic investigations, it is possible to identify such compounds by carrying out the assays in the presence of Triton X-100[14], [19]. Promiscuous inhibitors show no inhibition in the presence of Triton X-100. The IC50 values in the presence of Triton X-100 were determined if the RAs were <50%. (RA: ∼50%, IC50∼c, c: concentration of compound in the assay; RA >50%, IC50 > c). The RA was measured over a range of concentrations, from which the IC50 values were determined by non-linear regression analysis, using Sigma Plot (Systat software) and fitting the data to the equation y = y0+(a×b)/(b+x)[23].

PBP5fm = PBP5fm (Enterococcus faecium, UniProt Q47759); assay: PBP5fm enzymatic inhibition assay (fluorescein-labeled ampicillin, residual penicillin binding activity); format: biochemical, Enterococcus faecium D63r; details: for activity at 1000 µM: 4 h, residual activity of the enzyme at 1 mM inhibitor, 0.01% Triton X-100, read-out: PBP5fm RA [%]; for IC50: in the presence of 0.01% Triton X-100
Sequence of PBP5fm (Q47759 entry or part of it): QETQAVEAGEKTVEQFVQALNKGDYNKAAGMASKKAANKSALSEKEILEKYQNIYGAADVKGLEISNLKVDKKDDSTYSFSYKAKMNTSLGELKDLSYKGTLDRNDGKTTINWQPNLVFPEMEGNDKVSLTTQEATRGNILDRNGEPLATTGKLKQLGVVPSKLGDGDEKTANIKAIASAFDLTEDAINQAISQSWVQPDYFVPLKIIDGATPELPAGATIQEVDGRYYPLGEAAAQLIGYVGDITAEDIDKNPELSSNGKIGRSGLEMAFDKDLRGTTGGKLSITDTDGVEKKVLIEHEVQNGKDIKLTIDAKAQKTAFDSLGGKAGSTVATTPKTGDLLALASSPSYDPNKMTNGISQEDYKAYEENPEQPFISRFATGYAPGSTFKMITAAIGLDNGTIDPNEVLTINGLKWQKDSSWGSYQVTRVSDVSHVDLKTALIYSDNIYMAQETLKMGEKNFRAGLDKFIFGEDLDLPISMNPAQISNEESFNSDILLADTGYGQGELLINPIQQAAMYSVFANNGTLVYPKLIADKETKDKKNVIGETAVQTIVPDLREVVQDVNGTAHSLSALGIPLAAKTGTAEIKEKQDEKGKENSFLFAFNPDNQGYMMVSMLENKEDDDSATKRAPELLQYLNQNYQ
Procedure: as §1, §2

[1] = tested on: Bacillus subtilis ATCC 6633; assay: In-vitro antibacterial activity (MIC, broth microdilution); format: cell-based; details: ATCC6633
Procedure: (§3) Determination of the antibacterial activities was carried out on microtiter plates, in 200 µL (final volume) of Müeller-Hinton Broth (MHB), following EUCAST (European Committee on Antimicrobial Susceptibility testing)/CLSI (Clinical and Laboratory Standard Institute) recommended procedures, [25]. The compounds were solubilized in MHB, just before use. Inocula were prepared for each strain by resuspending isolated colonies from 18 h cultured plates. Equivalents of 0.5 Mac Farland turbidity standards (approximately 1×10^8 CFU mL^−1) were prepared in saline solution ([…]) and then diluted 200-fold in MBH.

[2] = tested on: Citrobacter freundii ATCC 8090; assay: as above; format: cell-based; details: ATCC8090
Procedure: as §3

[3] = tested on: Enterococcus faecalis ATCC 29212; assay: as above; format: cell-based; details: ATCC29212
Procedure: as §3

[4] = tested on: Enterococcus faecalis ATCC 7937; assay: as above; format: cell-based; details: ATCC7937
Procedure: as §3

[5] = tested on: Enterococcus faecium ATCC 19434; assay: as above; format: cell-based; details: ATCC19434
Procedure: as §3

[6] = tested on: Enterococcus hirae ATCC 8790; assay: as above; format: cell-based; details: ATCC8790
Procedure: as §3

[7] = tested on: Escherichia coli ATCC 8739; assay: as above; format: cell-based; details: ATCC8739
Procedure: as §3

[8] = tested on: Klebsiella pneumoniae ATCC 13883; assay: as above; format: cell-based; details: ATCC13883
Procedure: as §3

[9] = tested on: Listeria innocua ATCC 33090; assay: as above; format: cell-based; details: ATCC33090
Procedure: as §3

[10] = tested on: Listeria monocytogenes ATCC 14780; assay: as above; format: cell-based; details: ATCC14780
Procedure: as §3

[11] = tested on: Micrococcus luteus ATCC 9341; assay: as above; format: cell-based; details: ATCC9341
Procedure: as §3

[12] = tested on: Proteus mirabilis ATCC 29936; assay: as above; format: cell-based; details: ATCC29936
Procedure: as §3

[13] = tested on: Pseudomonas aeruginosa ATCC 27853; assay: as above; format: cell-based; details: ATCC27853
Procedure: as §3

[14] = tested on: Staphylococcus aureus ATCC 25923; assay: as above; format: cell-based; details: ATCC25923
Procedure: as §3

[15] = tested on: Staphylococcus aureus ATCC 43300 (MRSA); assay: as above; format: cell-based
Procedure: as §3

[16] = tested on: Staphylococcus aureus mp 1 (inducible MRSA); assay: as above; format: cell-based
Procedure: as §3

[17] = tested on: Staphylococcus epidermidis ATCC 12228; assay: as above; format: cell-based; details: ATCC12228
Procedure: as §3

[18] = tested on: Streptococcus pneumoniae ATCC 33400; assay: as above; format: cell-based; details: ATCC33400
Procedure: as §3

[19] = tested on: Streptococcus pneumoniae ATCC 49619; assay: as above; format: cell-based; details: ATCC49619
Procedure: as §3

[20] = tested on: Streptococcus pneumoniae D39; assay: as above; format: cell-based
Procedure: as §3

[21] = tested on: panel of five Gram-negative and 15 Gram-positive bacterial strains; assay: In-vitro antibacterial activity (MIC), whole panel; format: cell-based; details: summary over the whole panel; read-out: MICs for all of the bacterial strains under investigation
Procedure: as §3

| SMILES | remaining activity at 1000 µM (PBP2a) | PBP2x5204 RA [%] (PBP2x 5204) | activity at 1000 µM (PBP5fm) | MIC [1] | MIC [2] | MIC [3] | MIC [4] | MIC [5] | MIC [6] | MIC [7] | MIC [8] | MIC [9] | MIC [10] | MIC [11] | MIC [12] | MIC [13] | MIC [14] | MIC [15] | MIC [16] | MIC [17] | further results |
| --- | --- | --- | --- | --- | --- | --- | --- | --- | --- | --- | --- | --- | --- | --- | --- | --- | --- | --- | --- | --- | --- |
| NC(=O)c1cccc(NS(=O)(=O)c2cccc3cccnc23)c1 [compound 2, 3-(Quinoline-8-sulfonamido)benzamide] | 58% | 123% | 39% | > 512 µg/mL | > 512 µg/mL | > 512 µg/mL | > 512 µg/mL | > 512 µg/mL | > 512 µg/mL | > 512 µg/mL | > 512 µg/mL | > 512 µg/mL | > 512 µg/mL | > 512 µg/mL | > 512 µg/mL | > 512 µg/mL | > 512 µg/mL | > 512 µg/mL | > 512 µg/mL | > 512 µg/mL | IC50 (PBP5fm): 930 µM; MIC [18]: > 512 µg/mL; MIC [19]: > 512 µg/mL; MIC [20]: > 512 µg/mL; MIC [21]: > 512 µg/mL |
| CCCOc1cccc(C(=O)Nc2ccc(C)cc2C(=O)O)c1 [compound 10, 5-Methyl-2-(3-propoxybenzamido)benzoic acid] | 17% | 121% | 69% | 256 µg/mL (≈ 817 µM) | > 512 µg/mL | 256 µg/mL (≈ 817 µM) | 256 µg/mL (≈ 817 µM) | 128 µg/mL (≈ 408 µM) | 128 µg/mL (≈ 408 µM) | > 512 µg/mL | > 512 µg/mL | 256 µg/mL (≈ 817 µM) | 32 µg/mL (≈ 102 µM) | 256 µg/mL (≈ 817 µM) | > 512 µg/mL | > 512 µg/mL | 128 µg/mL (≈ 408 µM) | 256 µg/mL (≈ 817 µM) | 256 µg/mL (≈ 817 µM) | 128 µg/mL (≈ 408 µM) | IC50 (PBP2a): 680 µM; MIC [18]: 2 µg/mL (≈ 6.38 µM); MIC [19]: 2 µg/mL (≈ 6.38 µM); MIC [20]: 2 µg/mL (≈ 6.38 µM) |
| CCCOc1cccc(C(=O)Nc2ccccc2C(=O)O)c1 [compound 12, 2-(3-Propoxybenzamido)benzoic acid] | 47% | 97% | 34% | > 512 µg/mL | > 512 µg/mL | 256 µg/mL (≈ 855 µM) | > 512 µg/mL | > 512 µg/mL | 256 µg/mL (≈ 855 µM) | > 512 µg/mL | > 512 µg/mL | > 512 µg/mL | > 512 µg/mL | 256 µg/mL (≈ 855 µM) | > 512 µg/mL | > 512 µg/mL | 512 µg/mL (≈ 1710 µM) | 512 µg/mL (≈ 1710 µM) | 512 µg/mL (≈ 1710 µM) | 256 µg/mL (≈ 855 µM) | IC50 (PBP2a): 910 µM; IC50 (PBP5fm): > 1000 µM; MIC [18]: 256 µg/mL (≈ 855 µM); MIC [19]: 256 µg/mL (≈ 855 µM); MIC [20]: 256 µg/mL (≈ 855 µM); MIC [21]: ≥ 256 µg/mL |
